From patent US10130590B2, “Methods of treating cancer with atovaquone-related compounds” (DANA-FARBER CANCER INSTITUTE, INC., priority 2013, dated 2018)
Read-outs that look alike come from different tables or passages of the source.

Key:
[1] = cited from earlier work
STAT1 = STAT1 phosphorylation in cancer cells; format: cell-based
From the text: It has been discovered, using an unbiased gene expression-based approach, that atovaquone is a novel STAT3 inhibitor. Atovaquone acts by diminishing cell-surface gp130 expression and STAT3 tyrosine phosphorylation. As a consequence, critical STAT3 target genes mediating survival and proliferation are reduced, such as survivin, Bcl-2 family members, and cyclin D1. Moreover, atovaquone inhibits the viability of STAT3-dependent cancer cells by inducing apoptosis and disrupting cell cycle progression. […] Since STAT5 activation is crucial to cancer pathogenesis caused by JAK2-V617F, the additional inhibition of STAT5 in this context is a desirable effect of atovaquone. […] Because the effects of atovaquone on STAT activation are restricted to gp130-dependent signaling, atovaquone inhibits STATs more selectively than direct pharmacological JAK inhibition. […] At the same time, the actions of atovaquone extend to all cytokines that signal through gp130, including LIF and OSM, thereby exerting broader effects than therapies specifically directed against IL-6 or IL-6 receptor, such as monoclonal antibodies. This is also advantageous, since oncogenic effects of LIF and OSM have been reported.

STAT3 = assay: STAT3-luc reporter cells, IL-6 stimulated luciferase; format: cell-based
Protocol: Western blotting was performed as previously described (Battle T E, Arbiser J, & Frank D A (2005) The natural product honokiol induces caspase dependent apoptosis in B-cell chronic lymphocytic leukemia (B-CLL) cells. Blood 106(2):690-697). Antibodies to phospho-MAPK (9101), total MAPK (9102), phospho-Y705 STAT3 (9131), phospho-S6 (2215), total S6 (2217), phospho-4E-BP1 (9451), total 4E-BP1 (9644), total RSK (9355), phospho-S6K (9234, 85 used at 1:5000), total S6K (2708), phospho-eIF2α (9721, used at 1:1000), total eIF2α (5324), ATF4 (11815, used at 1:1000), PDGFRβ (3169), IGF1Rβ (9750), EGFR (2232), and HER2 (2242) were from Cell Signaling Technology. Phospho-RSK antibody was from R&D (AF889). Antibodies to total STAT3 (sc-482) and gp130 (sc-656, used at 1:1000) were from Santa Cruz Biotechnology. Phospho-S727 STAT3 antibody was described previously (229). REDD1 antibody was from Proteintech (10638-1-AP, used at 1:1000). Antibody recognizing full-length and cleaved ATF6 was from Abcam (ab122897, used at 1:1000). Antibodies to tubulin (T5168) and beta actin (A5316) were from Sigma. All antibodies were used at 1:10000 dilution for western blot unless otherwise noted. For immunoprecipitations, cells were lysed in 500 μl lysis buffer (0.5% NP-40, 150 mM NaCl, 50 mM Tris pH 7.5, with protease and phosphatase inhibitors freshly added at 1:100 [Pierce, PI78443]) on ice for 15 minutes, then centrifuged for 10 minutes at 14,000 RPM and 4° C. The supernatant was transferred to a new tube and incubated with 10 μl JAK2 antibody (Santa Cruz sc-278) or a mix of two TYK2 antibodies, 10 μl of each (Santa Cruz sc-5271 and Cell Signaling Technology 9312). Immunoprecipitation was performed overnight at 4° C. with rotation. The next day, 75 μl of protein A/G beads (Santa Cruz sc-2003) were washed twice in lysis buffer, then incubated with immunoprecipitates overnight as before. The next day, the beads were spun down (1 min. at 7,500 RPM and 4° C.) and washed 3 times with 650 μl lysis buffer for 10 minutes at 4° C. with rotation, then boiled in 50 μl sample buffer+10% β-mercaptoethanol. For Western blot, 20 μl were loaded per lane. For detection of phospho-tyrosine, a mixture of two pan-phospho-tyrosine antibodies (Cell Signaling Technology 9411 and 9416, 1:1000 of each) was used. Antibody to phospho-Y1007/1008 JAK2 was from Cell Signaling 86 Technology (3771, used at 1:1000). Antibody to phospho-Y570 JAK2 was from Millipore (09-241, used at 1:1000). Luminometric Assays Luciferase reporter cell lines were described previously (186). Firefly luciferase values were normalized by concurrent cell viability. Cell viability was measured as ATP-dependent luminescence by Cell Titer Glo (Promega).
To determine if atovaquone inhibits STAT3, it was tested in a cell-based reporter system of STAT3 transcriptional activity (Nelson E A, et al. (2008) Nifuroxazide inhibits survival of multiple myeloma cells by directly inhibiting STAT3. Blood 112(13):5095-5102). These cells lack basal STAT3 activation; upon IL-6 treatment, STAT3 becomes activated and drives transcription of a STAT3-dependent luciferase reporter gene. […] Activity of firefly luciferase was measured and normalized by cell viability (Cell Titer Glo). […]
STAT3-luc reporter cells were pre-treated with atovaquone, buparvaquone or TDBHN (concentration 10, 20, 30, or 40 μM) for 1 hour, then stimulated with IL-6 (10 ng/ml) for 5 hours. The activity of firefly luciferase was measured and normalized by cell viability (Cell Titer Glo).

For `O=C1C(O)=C([C@H]2CC[C@H](c3ccc(Cl)cc3)CC2)C(=O)c2ccccc21` [atovaquone, trans-2-[4-(4-chlorophenyl)cyclohexyl]-3-hydroxy-1,4-naphthalenedione], the “plasma concentrations achieved in patients” value ([1]; patients taking standard doses) is listed as 40 to 80 µM, the “plasma concentrations achieved in patients” value ([1]; patients) is listed as 15000 to 30000 ng/mL and the “mutant JAK2-dependent phosphorylation of STAT1” value (STAT1; HEL cells) is listed as “inhibited”. The “IL-6-dependent phosphorylation of STAT1” value (STAT1; INA-6 and U266 cells) was “inhibited IL-6-dependent phosphorylation of STAT1”, the “STAT-3 reporter gene expression” value (STAT3; 10, 20, 30, or 40 μM for 1 hour, then IL-6 (10 ng/ml) 5 hours, relative to controls) was “inhibited STAT-3 reporter gene expression” and the “luciferase induction by IL-6 (STAT3 transcriptional activity)” value (STAT3; pre-treated 1 hour, then IL-6 (10 ng/ml) 5 hr, normalized by cell viability) was “dose-dependent inhibition of luciferase induction by IL-6”. For the same molecule, the “effect on STAT3 activity compared with STAT1, STAT5 and NF-κB” value (STAT3; reporter systems) was “much greater”.
